From US20240166635A1, “AMINOHETEROARYL KINASE INHIBITORS” (Anrui Biomedical Technology (Guangzhou) Co.,Ltd., priority 2020, published 2024)

Legend:
Format in all cases: biochemical
CDK2/CyclinE1 = CDK2/CyclinE1 (Homo sapiens (Human), UniProt P24941); experiment: CDK2/CyclinE1 kinase inhibitory activity (Caliper mobility shift); conditions: read-out: CDK2/Cyclin El IC50
CDK1/CyclinB = CDK1/CyclinB (Homo sapiens (Human), UniProt P06493); experiment: CDK1/CyclinB kinase inhibitory activity (Caliper mobility shift); conditions: read-out: CDK1/Cyclin B1 IC50
CDK1/CyclinB, sequence (P06493 whole entry): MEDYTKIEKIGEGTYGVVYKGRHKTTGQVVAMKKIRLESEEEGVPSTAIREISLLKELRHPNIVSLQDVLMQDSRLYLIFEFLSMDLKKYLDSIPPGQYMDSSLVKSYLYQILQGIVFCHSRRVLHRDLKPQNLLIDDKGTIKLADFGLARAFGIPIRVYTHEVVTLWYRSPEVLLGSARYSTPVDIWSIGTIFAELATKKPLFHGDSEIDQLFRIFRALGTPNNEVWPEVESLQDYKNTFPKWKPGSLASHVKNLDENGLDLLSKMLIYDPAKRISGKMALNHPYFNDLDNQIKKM
CDK1/CyclinB, sequence (P14635 whole entry partner): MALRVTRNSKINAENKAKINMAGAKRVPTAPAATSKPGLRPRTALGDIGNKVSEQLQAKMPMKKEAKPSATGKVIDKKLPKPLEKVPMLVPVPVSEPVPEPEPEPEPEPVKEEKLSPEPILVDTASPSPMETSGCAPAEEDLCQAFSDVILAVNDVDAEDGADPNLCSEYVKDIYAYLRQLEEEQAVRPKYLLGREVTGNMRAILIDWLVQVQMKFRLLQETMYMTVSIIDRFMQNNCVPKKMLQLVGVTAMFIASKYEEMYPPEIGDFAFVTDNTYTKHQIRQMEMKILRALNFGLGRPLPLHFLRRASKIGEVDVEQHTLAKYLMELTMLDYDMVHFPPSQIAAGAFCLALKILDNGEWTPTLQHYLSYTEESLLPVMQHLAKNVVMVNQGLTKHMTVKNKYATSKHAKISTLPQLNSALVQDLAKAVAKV

CDK9/CyclinT1 = CDK9/CyclinT1 (Homo sapiens (Human), UniProt P50750); experiment: CDK9/CyclinT1 kinase inhibitory activity (Caliper mobility shift); conditions: read-out: CDK9/Cyclin T1 IC50
CDK9/CyclinT1, sequence (P50750 whole entry): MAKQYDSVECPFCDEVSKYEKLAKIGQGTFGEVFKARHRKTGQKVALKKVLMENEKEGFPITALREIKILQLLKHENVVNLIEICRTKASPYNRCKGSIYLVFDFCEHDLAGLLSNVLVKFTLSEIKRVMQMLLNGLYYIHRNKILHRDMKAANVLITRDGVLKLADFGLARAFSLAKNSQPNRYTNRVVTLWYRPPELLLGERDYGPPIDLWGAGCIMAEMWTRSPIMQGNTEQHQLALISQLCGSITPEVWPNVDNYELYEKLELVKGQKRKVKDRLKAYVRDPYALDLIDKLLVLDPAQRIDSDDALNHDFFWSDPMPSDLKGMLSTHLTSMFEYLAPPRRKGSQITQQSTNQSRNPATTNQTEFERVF
CDK9/CyclinT1, sequence (O60563 whole entry partner): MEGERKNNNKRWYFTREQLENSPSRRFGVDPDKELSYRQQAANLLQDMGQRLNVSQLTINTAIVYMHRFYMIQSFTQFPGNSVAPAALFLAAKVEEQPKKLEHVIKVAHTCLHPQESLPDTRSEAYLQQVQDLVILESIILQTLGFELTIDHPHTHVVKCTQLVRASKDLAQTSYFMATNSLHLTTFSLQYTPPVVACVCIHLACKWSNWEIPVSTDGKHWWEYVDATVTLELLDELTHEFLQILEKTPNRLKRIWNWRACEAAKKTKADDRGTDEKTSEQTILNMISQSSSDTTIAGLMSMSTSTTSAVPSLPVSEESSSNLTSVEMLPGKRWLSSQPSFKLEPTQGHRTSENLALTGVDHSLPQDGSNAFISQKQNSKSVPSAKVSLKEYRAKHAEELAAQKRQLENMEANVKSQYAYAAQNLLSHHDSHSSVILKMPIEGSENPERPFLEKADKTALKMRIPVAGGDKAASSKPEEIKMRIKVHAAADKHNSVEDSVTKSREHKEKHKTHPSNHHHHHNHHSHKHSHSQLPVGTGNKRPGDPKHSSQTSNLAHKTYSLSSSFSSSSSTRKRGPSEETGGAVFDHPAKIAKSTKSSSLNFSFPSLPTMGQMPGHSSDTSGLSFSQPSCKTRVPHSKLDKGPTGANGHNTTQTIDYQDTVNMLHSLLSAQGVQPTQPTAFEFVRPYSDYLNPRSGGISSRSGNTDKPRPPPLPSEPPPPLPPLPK

| IC50 (CDK2/CyclinE1) [nM] | IC50 (CDK1/CyclinB) [nM] | IC50 (CDK9/CyclinT1) [nM] | Structure (SMILES) |
| --- | --- | --- | --- |
| < 10 | 10 to 100 |  | C[C@H]1CCCCN1c1nc(Nc2ccc(S(N)(=O)=O)cc2)ncc1F [Example 88] |
| < 10 | 100 to 1000 | 100 to 1000 | [2H]C([2H])([2H])NS(=O)(=O)c1ccc(Nc2ncc(Br)c(OC3CCCC3O)n2)cc1 (single isomer, unassigned) [Example 143b] |
| < 10 | 10 to 100 | 100 to 1000 | N#Cc1cnc(Nc2ccc(S(N)(=O)=O)cc2)nc1OCC1CCCC1O (single isomer, unassigned) [Example 19b] |
| 10 to 100 | 10 to 100 | 100 to 1000 | O=S(=O)(NC1CCOCC1)c1ccc(Nc2ncc(Cl)c(O[C@@H]3CCC[C@@H]3O)n2)cc1 (single isomer, unassigned) [Example 130b, cis-4-((5-chloro-4-((2-hydroxycyclopentyl)oxy)pyrimidin-2-yl)amino)-N-(tetrahydro-2H-pyran-4-yl)benzenesulfonamide] |
| 10 to 100 | 100 to 1000 | ≥ 1000 | CC(C)NS(=O)(=O)c1ccc(Nc2ncc(C#N)c(OC3CCCCC3O)n2)cc1 (single isomer, unassigned) [Example 30b] |
| < 10 | 10 to 100 | 10 to 100 | C[C@@H]1CC[C@H](O)CN1c1nc(Nc2ccc(S(N)(=O)=O)cc2)ncc1C#N [Example 77] |
| < 10 | 100 to 1000 | 100 to 1000 | C=Cc1cnc(Nc2ccc(S(N)(=O)=O)cc2)nc1OC1CCCC1O (single isomer, unassigned) [Example 155b] |
| 10 to 100 | 100 to 1000 | 100 to 1000 | CC1(O)CCCC1Oc1nc(Nc2ccc(S(N)(=O)=O)cc2)ncc1C#N (single isomer, unassigned) [Example 23b] |
| 10 to 100 | 100 to 1000 | ≥ 1000 | [2H]C([2H])([2H])NS(=O)(=O)c1ccc(Nc2ncc(C(F)(F)F)c(OC3COCCC3O)n2)cc1 (single isomer, unassigned) [Example 117b] |
| 10 to 100 | 100 to 1000 | ≥ 1000 | N#Cc1cnc(Nc2ccc(S(N)(=O)=O)cc2)nc1O[C@@H]1CCCC[C@@H]1O (single isomer, unassigned) [Example 2b, cis-4-((5-cyano-4-((2-hydroxycyclohexyl)oxy)pyrimidin-2-yl)amino)benzenesulfonamide] |
| < 10 | 10 to 100 | 100 to 1000 | NS(=O)(=O)c1ccc(Nc2ncc(Br)c(OC3CCCC3O)n2)cc1 (single isomer, unassigned) [Example 141b] |
| < 10 | 100 to 1000 | 100 to 1000 | CC1CCCC(O)C1Oc1nc(Nc2ccc(S(N)(=O)=O)cc2)ncc1C(F)(F)F (single isomer, unassigned) [Example 112b] |
| < 10 | 100 to 1000 | ≥ 1000 | [2H]C([2H])([2H])NS(=O)(=O)c1ccc(Nc2ncc(C#N)c(OC3CCCOCC3)n2)cc1 (single isomer, unassigned) [Example 33b] |
| < 10 | 100 to 1000 | 100 to 1000 | CC1(NS(=O)(=O)c2ccc(Nc3ncc(Br)c(O[C@@H]4CCC[C@@H]4O)n3)cc2)COC1 (single isomer, unassigned) [Example 131b, cis-4-((5-bromo-4-((2-hydroxycyclopentyl)oxy)pyrimidin-2-yl)amino)-N-(3-methyloxetan-3-yl)benzenesulfonamide] |
| < 10 | 10 to 100 | 100 to 1000 | NS(=O)(=O)c1ccc(Nc2ncc(C(F)(F)F)c(O[C@@H]3CCC[C@@H]3O)n2)cc1 (single isomer, unassigned) [Example 99b, cis-4-((4-((2-hydroxycyclopentyl)oxy)-5-(trifluoromethyl)pyrimidin-2-yl)amino)benzenesulfonamide] |
| 10 to 100 | 100 to 1000 | ≥ 1000 | Cc1cnc(Nc2ccc(S(=O)(=O)NC3CC3)cc2)nc1OC1CCCC1O (single isomer, unassigned) [Example 146b] |
| 100 to 1000 | ≥ 1000 |  | [2H]C([2H])([2H])NS(=O)(=O)c1ccc(Nc2ncc(CC)c(OC3COCC3(C)O)n2)cc1 (single isomer, unassigned) [Example 150b] |
| 10 to 100 | 10 to 100 |  | N#Cc1cnc(Nc2ccc(S(N)(=O)=O)cc2)nc1N1CCCC(c2ccccc2)C1 (racemic) [Example 84] |
|  |  | 100 to 1000 | C=C(F)c1cnc(Nc2ccc(S(=O)(=O)NC)cc2)nc1O[C@@H]1CCC[C@@H]1O (single isomer, unassigned) [Example 135b, cis-4-((5-(1-fluorovinyl)-4-((2-hydroxycyclopentyl)oxy)pyrimidin-2-yl)amino)-N-(methyl-d3)benzenesulfonamide] |
| 10 to 100 | 10 to 100 |  | N#Cc1cnc(Nc2ccc(S(N)(=O)=O)cc2)nc1OCC1CCCCC1 [Example 13] |
| 10 to 100 | 100 to 1000 |  | CO[C@H]1CCCN(c2nc(Nc3ccc(S(N)(=O)=O)cc3)ncc2C#N)C1 [Example 80] |
|  |  | 100 to 1000 | CC1(COc2nc(NC3CCN(S(=O)(=O)c4cn[nH]c4)CC3)ncc2C#N)CCCC1 [Example 8, 2-((1-((1H-pyrazol-4-yl)sulfonyl)piperidin-4-yl)amino)-4-((1-methylcyclopentyl)methoxy)pyrimidine-5-carbonitrile] |
| 10 to 100 | 100 to 1000 |  | N#Cc1cnc(Nc2ccc(S(N)(=O)=O)cc2)nc1OCC1(O)CCCCC1 [Example 16] |
| 10 to 100 |  |  | [2H]C([2H])([2H])NS(=O)(=O)c1ccc(Nc2ncc(C(F)(F)F)c(O[C@H]3CCOC[C@H]3O)n2)c(F)c1 (single isomer, unassigned) [Example 101b, cis-3-fluoro-4-((4-((3-hydroxytetrahydro-2H-pyran-4-yl)oxy)-5-(trifluoromethyl)pyrimidin-2-yl)amino)-N-(methyl-d3)benzenesulfonamide] |
| 10 to 100 | 100 to 1000 |  | [2H]C([2H])([2H])NS(=O)(=O)c1ccc(Nc2ncc(C(=C)F)c(O[C@@H]3CCC[C@@H]3O)n2)cc1 (single isomer, unassigned) [Example 135b, cis-4-((5-(1-fluorovinyl)-4-((2-hydroxycyclopentyl)oxy)pyrimidin-2-yl)amino)-N-(methyl-d3)benzenesulfonamide] |
| 10 to 100 | 100 to 1000 |  | [2H]C([2H])([2H])NS(=O)(=O)c1ccc(Nc2ncc(C(F)(F)F)c(O[C@H]3CCOC[C@H]3O)n2)cc1 (single isomer, unassigned) [Example 100b, cis-4-((4-((3-hydroxytetrahydro-2H-pyran-4-yl)oxy)-5-(trifluoromethyl)pyrimidin-2-yl)amino)-N-(methyl-d3)benzenesulfonamide] |
| 10 to 100 | 100 to 1000 |  | CS(=N)(=O)c1ccc(Nc2ncc(C#N)c(N3CCCCC3)n2)cc1 (stereo not drawn) [Example 90] |
| < 10 | 10 to 100 |  | C[C@@H]1CCCCN1c1nc(Nc2ccc(S(N)(=O)=O)cc2)ncc1F [Example 87] |
|  |  | 100 to 1000 | CNS(=O)(=O)c1ccc(Nc2ncc(C(F)(F)F)c(O[C@H]3CCOC[C@H]3O)n2)cc1 (single isomer, unassigned) [Example 100b, cis-4-((4-((3-hydroxytetrahydro-2H-pyran-4-yl)oxy)-5-(trifluoromethyl)pyrimidin-2-yl)amino)-N-(methyl-d3)benzenesulfonamide] |
